Reference: patent EP0256909B1, “N,N-bis-(4-fluorophenyl) carbamoyl acetohydroxamic acid and pharmaceutical composition containing it” (priority 1986, dated 1988)

How the values were obtained:
[1] = in vivo; conditions: mouse, in vivo; for LD50 at 24 h: dose létale 50% (DL50), 24 h after administration
Procedure: Le CRL 41131, en suspension dans une solution de gomme arabique à 5%, a été administré par voie intrapéritonéale sous un volume de 20 ml/kg chez la souris (mâle, NMRI, Evic Ceba) et de 5 ml/kg chez le rat (mâle, CD1, Sprague Dawley, Charles River).
Aussitôt après l'administration de CRL 41131, les souris groupées par lots de 10 sont placées dans des boîtes en Plexiglass (20 x 10 x 10 cm).
On note le nombre d'animaux morts, toutes les heures pendant 4 h et après 24, 48 et 72 h.
La toxicité du CRL 41131 est déterminée dans les mêmes conditions sur des lots de souris placées à raison d'une par boîte.

[2] = system: souris; assay: Interaction with barbital; assay type: in vivo; conditions: comparison section
Procedure: Trente minutes après l'administration de CRL 41131, des lots de 10 souris reçoivent une injection intrapéritonéale de barbital (220 mg/kg).

[3] = results given in the earlier document; cited from earlier work
[4] = system: souris; assay: Electroshock test; assay type: in vivo; conditions: comparison section, no dose given
[5] = system: souris; assay: Interaction with oxotremorine; assay type: in vivo; conditions: mouse, oxotremorine 0,5 mg/kg i.p.
Procedure: Le CRL 41131 est administré à des lots de 6 souris 30 min avant l'injection intrapéritonéale de 0,5 mg/kg d'oxotrémorine.

[6] = system: souris; assay: Interaction with reserpine; assay type: in vivo; conditions: 64 mg/kg, comparison section
Procedure: Quatre heures après l'injection intrapéritonéale de 2,5 mg/kg de réserpine, des lots de 6 souris reçoivent le CRL 41131.

[7] = system: rat; assay: Interaction with amphetamine; assay type: in vivo; conditions: comparison section, no dose given
[8] = system: souris; assay: Intergroup aggressiveness; assay type: in vivo; conditions: 32 et 256 mg/kg, comparison section
Procedure: Après avoir séjourné pendant 3 semaines dans chacune des moitiés d'une cage séparées par une cloison opaque, des groupes de 3 souris reçoivent le CRL 41131. Trente minutes plus tard, les deux groupes d'une même cage sont réunis par retrait de la cloison et on note le nombre de combats qui surviennent en 10 min.

## CCN(CC)C(C)C(=O)c1ccccc1 (stereo not shown) [diéthylpropion, reference compound]
[1]
  selectivity ratio at 24 h: ~8

## O=C(CC(=O)N(c1ccccc1)c1ccccc1)NO [CRL 40385, reference compound]
[2]; 512 mg/kg
  sommeil (association au barbital): il ne le fait plus
[2]; doses below 512 mg/kg
  sommeil (association au barbital): diminue d'abord le sommeil
[3]
  effet mis en évidence par un ensemble de tests: effet anti-fatigue
[1]; ip, grouped mice
  LD50 at 24 h: ~1050 mg/kg
[1]; ip, isolated mice
  LD50 at 24 h: ~1500 mg/kg
[4]
  test à l'électrochoc: s'oppose aux convulsions
[5]
  action hypothermisante de l'oxotrémorine (température): antagonise l'hyperthermie
  intensité des tremblements provoqués par l'oxotrémorine: diminue l'intensité des tremblements
[6]
  test à la réserpine: hypothermie: s'oppose modérément
[7]
  test à l'amphétamine: stéréotypies du rat: prolonge les stéréotypies du rat
[8]
  agressivité intergroupe des souris: augmentation

## CC(Cc1ccccc1)N(C)Cc1ccccc1 (stereo not shown) [benzophétamine, reference compound]
[1]; ip, rapport, LD50 ratio isolated/grouped mice (formula not readable), same conditions, 24 h
  selectivity ratio: ~4
